Target: T1, P70S6K (Homo sapiens, UniProt P23443, T412E)
T1 construct: purchased Millipore
Assay: P70S6K enzyme assay
Type: biochemical
Conditions: P70S6K T412E mutant 3 nM, 24 μM ATP, FITC-AHA-AKRRRLSSLRA-OH substrate, 90 min at 25° C.; read-out: IC50p70S6K
Description: P70S6K inhibitor compounds are diluted and plated in 96 well plates. A reaction mixture including the following components is then added to the compound plate to initiate the enzyme reaction; P70S6K (3 nM, T412E mutant, Millipore) is mixed with 24 μM ATP in an assay buffer containing 100 mM Hepes (pH 7.5), 5 mM MgCl2, 1 mM DTT, 0.015% Brij and 1 μM of the substrate peptide FITC-AHA-AKRRRLSSLRA-OH (derived from the S6 ribosomal protein sequence, FITC=fluorescein isothiocyanate, AHA=6-aminohexanoic acid). The reaction is incubated for 90 min at 25° C., before the addition of 10 mM EDTA to stop the reaction. The proportion of substrate and product (phosphorylated) peptide is analyzed on a Caliper Life Sciences Lab Chip 3000, using a pressure of −1.4 psi, and upstream and downstream voltages of −3000 and −700 respectively. Product peaks are resolved before substrate peaks on the resulting chromatograms.
To assess the inhibitory potential of the compounds, IC50-values were determined, as shown in Chemical Synthesis section above.

T1 sequence (P23443 whole entry T412E): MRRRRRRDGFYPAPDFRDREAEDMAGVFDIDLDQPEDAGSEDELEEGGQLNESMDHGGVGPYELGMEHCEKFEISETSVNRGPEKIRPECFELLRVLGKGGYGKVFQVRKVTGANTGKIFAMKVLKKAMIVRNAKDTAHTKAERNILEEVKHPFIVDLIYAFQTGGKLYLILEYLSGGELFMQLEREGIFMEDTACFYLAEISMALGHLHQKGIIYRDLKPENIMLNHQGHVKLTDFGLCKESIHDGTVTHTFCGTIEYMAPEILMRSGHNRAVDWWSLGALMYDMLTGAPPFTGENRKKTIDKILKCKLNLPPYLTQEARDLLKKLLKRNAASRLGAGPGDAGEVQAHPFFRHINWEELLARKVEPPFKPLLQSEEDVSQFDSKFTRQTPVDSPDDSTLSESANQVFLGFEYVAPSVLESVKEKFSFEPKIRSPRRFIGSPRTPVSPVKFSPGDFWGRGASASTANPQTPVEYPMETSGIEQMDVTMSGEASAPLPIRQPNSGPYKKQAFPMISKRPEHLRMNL

Structure (SMILES)	IC50 [nM]
NC(=O)c1cccc2c(N[C@H]3CNC[C@@H]3c3cccc(F)c3)ncnc12 (racemic) [compound 2, 4-((4-(3-fluorophenyl)pyrrolidin-3-yl)amino)quinazoline-8-carboxamide]	3
NC(=O)c1cccc2c(N[C@H]3CNC[C@@H]3c3ccccc3)ncnc12 (racemic) [compound 3, 4-((4-phenylpyrrolidin-3-yl)amino)quinazoline-8-carboxamide]	4.9
NC(=O)c1cccc2c(NC3CNCC3c3c(F)cccc3Cl)ncnc12 (racemic) [compound 10, 4-((4-(2-chloro-6-fluorophenyl)pyrrolidin-3-yl)amino)-quinazoline-8-carboxamide]	7
CN1CC(Nc2ncnc3c(C(N)=O)cccc23)C(c2cccc(F)c2)C1 (racemic) [compound 12, 4-((4-(3-fluorophenyl)-1-methylpyrrolidin-3-yl)amino)quinazoline-8-carboxamide]	23
Cc1cc(C(N)=O)c2ncnc(NC3CNCC3c3ccccc3)c2c1 (racemic) [compound 15, 6-methyl-4-((4-phenylpyrrolidin-3-yl)amino)quinazoline-8-carboxamide]	349
Cc1nc(NC2CNCC2c2ccccc2)c2cccc(C(N)=O)c2n1 (racemic) [compound 16, 2-methyl-4-((4-phenylpyrrolidin-3-yl)amino)quinazoline-8-carboxamide]	6
NC(=O)c1cccc2c(N[C@@H]3CNCC[C@H]3c3ccccc3)ncnc12 (racemic) [compound 27, 4-((4-phenylpiperidin-3-yl)amino)quinazoline-8-carboxamide]	6.3
Cc1cccc([C@@H]2CCNC[C@H]2Nc2ncnc3c(C(N)=O)cccc23)c1 (racemic) [compound 31, 4-((4-(m-tolyl)piperidin-3-yl)amino)quinazoline-8-carboxamide]	3.1
NC(=O)c1cccc2c(N[C@@H]3CNCC[C@H]3c3ccc(F)cc3)ncnc12 (racemic) [compound 32, 4-((4-(4-fluorophenyl)piperidin-3-yl)amino)quinazoline-8-carboxamide]	3.2
Cc1ccc(C2CCN(C(=O)OCc3ccccc3)CC2Nc2ncnc3c(C(N)=O)cccc23)cc1F (racemic) [compound 35, Benzyl 3-((8-carbamoylquinazolin-4-yl)amino)-4-(3-fluoro-4-methylphenyl)piperidine-1-carboxylate]	1000
CCc1nc(N[C@@H]2CNCC[C@H]2c2ccccc2)c2cccc(C(N)=O)c2n1 (racemic) [compound 39, 2-ethyl-4-((4-phenylpiperidin-3-yl)amino)quinazoline-8-carboxamide]	4.8

Compounds with a lower IC50, results first:

IC50 [nM]	Structure (SMILES)
2.5	Cc1nc(N[C@@H]2CNCC[C@H]2c2cccc(F)c2)c2cccc(C(N)=O)c2n1 (racemic) [compound 37, 4-((4-(3-fluorophenyl)piperidin-3-yl)amino)-2-methylquinazoline-8-carboxamide]
2.1	NC(=O)c1cccc2c(N[C@@H]3CNCC[C@H]3c3cccc(C(F)(F)F)c3)ncnc12 (racemic) [compound 30, 4-((4-(3-(trifluoromethyl)phenyl)piperidin-3-yl)amino)quinazoline-8-carboxamide]
1.8	NC(=O)c1cccc2c(N[C@@H]3CNCC[C@H]3c3cccc(F)c3)ncnc12 (racemic) [compound 28, 4-((4-(3-fluorophenyl)piperidin-3-yl)amino)quinazoline-8-carboxamide]
1.7	CCc1nc(N[C@@H]2CNCC[C@H]2c2cccc(F)c2)c2cccc(C(N)=O)c2n1 (racemic) [compound 38, 2-ethyl-4-((4-(3-fluorophenyl)piperidin-3-yl)amino)quinazoline-8-carboxamide]
1.3	NC(=O)c1cccc2c(NC3CNCC3c3cccc(Cl)c3)ncnc12 (racemic) [compound 9, 4-((4-(3-chlorophenyl)pyrrolidin-3-yl)amino)quinazoline-8-carboxamide]
